From patent US9644006B2, “Carrier peptides for cell delivery” (priority 2011, dated 2017) come the findings set out here.

For this test, the system named is Vero cells. Briefly: Effect of cytoskeleton depolymerizing drugs on delivery peptide (DynPro) movement. It counts as cell-based, African green monkey.
The mark [1] stands for this setting: Vero cells with 10 μM DynPro, Nocodazole 2.5 μM 30 min, LatrunculinA 0.1 μM.

Molecules are shown by their SMILES. Where two headings read alike, the source gives them in different places.

Consider `C/C1=C\[C@H](C)C[C@H](C)OC(=O)C[C@H](c2ccc(O)cc2)NC(=O)[C@@H](Cc2c(Br)[nH]c3ccccc23)N(C)C(=O)[C@H](C)NC(=O)[C@@H](C)C1` [Jasplakinolide], for which the “effect of the drug on delivery peptide transport movement” value (shortened to “effect of the drug”) was “did not inhibit this movement”.

For the molecule `COC(=O)Nc1nc2ccc(C(=O)c3cccs3)cc2[nH]1` [Nocodazole], the “effect of the drug” value under setting [1] is given as “abolished”.

Take `C/C1=C/C(=O)O[C@@H]2C[C@@H](CC[C@H](C)/C=C\C=C\CC1)O[C@@](O)([C@@H]1CSC(=O)N1)C2` [LatrunculinA]: under setting [1], the “effect of the drug” value is listed as “transport was preserved”.
